From ChEMBL document CHEMBL5338817, “Discovery of Exceptionally Potent, Selective, and Efficacious PROTAC Degraders of CBP and p300 Proteins” (J Med Chem, 2023)

Key:
CREB-binding protein [1] = target: T1, CREB-binding protein (Homo sapiens, UniProt Q92793); experiment: Induction of CBP degradation in human RS4-11 cells incubated for 4 hrs by Western blot assay; assay type: cell-based
Target sequence in this assay (Q92793 whole entry): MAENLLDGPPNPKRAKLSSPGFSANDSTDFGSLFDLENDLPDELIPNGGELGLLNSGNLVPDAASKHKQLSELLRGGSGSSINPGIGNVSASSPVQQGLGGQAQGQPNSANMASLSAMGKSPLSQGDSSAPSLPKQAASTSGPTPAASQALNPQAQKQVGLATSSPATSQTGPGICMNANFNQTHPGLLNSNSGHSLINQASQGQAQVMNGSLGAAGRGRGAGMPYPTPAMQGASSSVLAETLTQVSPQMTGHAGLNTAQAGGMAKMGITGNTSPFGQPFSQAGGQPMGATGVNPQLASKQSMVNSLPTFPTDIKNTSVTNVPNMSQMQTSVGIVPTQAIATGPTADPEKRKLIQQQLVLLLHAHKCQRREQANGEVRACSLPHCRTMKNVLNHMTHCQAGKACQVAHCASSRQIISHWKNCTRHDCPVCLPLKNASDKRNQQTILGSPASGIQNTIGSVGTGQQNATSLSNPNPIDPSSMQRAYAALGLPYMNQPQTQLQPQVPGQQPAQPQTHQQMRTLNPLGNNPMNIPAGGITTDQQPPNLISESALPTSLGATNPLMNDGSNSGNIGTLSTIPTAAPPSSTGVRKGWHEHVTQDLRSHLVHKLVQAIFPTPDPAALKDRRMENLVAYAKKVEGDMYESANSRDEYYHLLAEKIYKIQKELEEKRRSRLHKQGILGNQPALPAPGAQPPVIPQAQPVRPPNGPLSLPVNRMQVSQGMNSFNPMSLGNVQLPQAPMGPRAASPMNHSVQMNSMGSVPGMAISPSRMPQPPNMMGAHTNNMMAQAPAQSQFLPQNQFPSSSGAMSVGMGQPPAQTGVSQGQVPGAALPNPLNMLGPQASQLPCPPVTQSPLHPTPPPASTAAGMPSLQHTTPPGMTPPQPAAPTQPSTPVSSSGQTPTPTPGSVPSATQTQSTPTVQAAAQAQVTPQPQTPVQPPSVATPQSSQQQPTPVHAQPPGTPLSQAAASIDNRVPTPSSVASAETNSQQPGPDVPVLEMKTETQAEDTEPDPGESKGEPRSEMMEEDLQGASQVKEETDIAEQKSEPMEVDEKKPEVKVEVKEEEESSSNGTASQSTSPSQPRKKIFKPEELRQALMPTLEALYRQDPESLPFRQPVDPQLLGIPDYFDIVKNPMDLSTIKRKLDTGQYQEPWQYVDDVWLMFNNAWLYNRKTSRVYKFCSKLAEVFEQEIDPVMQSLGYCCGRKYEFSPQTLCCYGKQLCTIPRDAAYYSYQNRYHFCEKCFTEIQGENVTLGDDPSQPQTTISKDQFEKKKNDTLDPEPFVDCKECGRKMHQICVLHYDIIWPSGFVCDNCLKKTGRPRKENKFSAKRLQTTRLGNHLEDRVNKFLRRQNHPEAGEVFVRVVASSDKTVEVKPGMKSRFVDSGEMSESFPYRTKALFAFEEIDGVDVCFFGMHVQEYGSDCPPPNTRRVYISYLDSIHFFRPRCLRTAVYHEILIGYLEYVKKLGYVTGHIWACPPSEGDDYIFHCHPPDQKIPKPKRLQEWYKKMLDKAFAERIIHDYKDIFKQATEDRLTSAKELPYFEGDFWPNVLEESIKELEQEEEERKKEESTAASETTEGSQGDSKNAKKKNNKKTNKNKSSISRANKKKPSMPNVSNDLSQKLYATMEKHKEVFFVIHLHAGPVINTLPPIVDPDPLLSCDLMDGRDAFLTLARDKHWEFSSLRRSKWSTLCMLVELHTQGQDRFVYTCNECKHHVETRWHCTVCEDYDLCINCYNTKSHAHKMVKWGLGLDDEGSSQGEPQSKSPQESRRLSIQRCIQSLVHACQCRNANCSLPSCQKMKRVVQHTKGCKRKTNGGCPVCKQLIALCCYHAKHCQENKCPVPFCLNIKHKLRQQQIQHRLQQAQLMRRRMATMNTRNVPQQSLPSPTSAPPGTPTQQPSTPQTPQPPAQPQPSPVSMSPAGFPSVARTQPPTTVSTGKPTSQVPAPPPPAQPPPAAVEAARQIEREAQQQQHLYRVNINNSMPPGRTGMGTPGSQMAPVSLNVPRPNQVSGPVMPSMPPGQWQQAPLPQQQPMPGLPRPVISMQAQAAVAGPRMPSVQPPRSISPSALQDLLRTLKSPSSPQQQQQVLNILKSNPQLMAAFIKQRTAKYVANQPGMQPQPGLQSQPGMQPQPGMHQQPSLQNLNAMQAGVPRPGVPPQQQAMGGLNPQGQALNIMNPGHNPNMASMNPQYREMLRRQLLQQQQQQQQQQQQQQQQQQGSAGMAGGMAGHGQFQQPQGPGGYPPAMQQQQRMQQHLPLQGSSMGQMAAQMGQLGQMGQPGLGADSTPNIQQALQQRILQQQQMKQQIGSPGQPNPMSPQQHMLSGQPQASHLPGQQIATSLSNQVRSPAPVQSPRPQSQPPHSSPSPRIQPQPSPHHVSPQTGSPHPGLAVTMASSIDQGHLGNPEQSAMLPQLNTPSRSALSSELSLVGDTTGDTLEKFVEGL

RS4-11 [2] = experiment: Cytotoxicity against human RS4-11 cells assessed as maximum inhibition of cell growth incubated for 4 days by cellTiter-Glo assay relative to control; assay type: functional; settings: time 4 day
[3] = target: T2, Histone acetyltransferase p300 (Homo sapiens, UniProt Q09472); experiment: Induction of p300 degradation in human RS4-11 cells incubated for 4 hrs by Western blot assay; assay type: cell-based; settings: for DC50: rs4-11
T2 sequence (Q09472 whole entry): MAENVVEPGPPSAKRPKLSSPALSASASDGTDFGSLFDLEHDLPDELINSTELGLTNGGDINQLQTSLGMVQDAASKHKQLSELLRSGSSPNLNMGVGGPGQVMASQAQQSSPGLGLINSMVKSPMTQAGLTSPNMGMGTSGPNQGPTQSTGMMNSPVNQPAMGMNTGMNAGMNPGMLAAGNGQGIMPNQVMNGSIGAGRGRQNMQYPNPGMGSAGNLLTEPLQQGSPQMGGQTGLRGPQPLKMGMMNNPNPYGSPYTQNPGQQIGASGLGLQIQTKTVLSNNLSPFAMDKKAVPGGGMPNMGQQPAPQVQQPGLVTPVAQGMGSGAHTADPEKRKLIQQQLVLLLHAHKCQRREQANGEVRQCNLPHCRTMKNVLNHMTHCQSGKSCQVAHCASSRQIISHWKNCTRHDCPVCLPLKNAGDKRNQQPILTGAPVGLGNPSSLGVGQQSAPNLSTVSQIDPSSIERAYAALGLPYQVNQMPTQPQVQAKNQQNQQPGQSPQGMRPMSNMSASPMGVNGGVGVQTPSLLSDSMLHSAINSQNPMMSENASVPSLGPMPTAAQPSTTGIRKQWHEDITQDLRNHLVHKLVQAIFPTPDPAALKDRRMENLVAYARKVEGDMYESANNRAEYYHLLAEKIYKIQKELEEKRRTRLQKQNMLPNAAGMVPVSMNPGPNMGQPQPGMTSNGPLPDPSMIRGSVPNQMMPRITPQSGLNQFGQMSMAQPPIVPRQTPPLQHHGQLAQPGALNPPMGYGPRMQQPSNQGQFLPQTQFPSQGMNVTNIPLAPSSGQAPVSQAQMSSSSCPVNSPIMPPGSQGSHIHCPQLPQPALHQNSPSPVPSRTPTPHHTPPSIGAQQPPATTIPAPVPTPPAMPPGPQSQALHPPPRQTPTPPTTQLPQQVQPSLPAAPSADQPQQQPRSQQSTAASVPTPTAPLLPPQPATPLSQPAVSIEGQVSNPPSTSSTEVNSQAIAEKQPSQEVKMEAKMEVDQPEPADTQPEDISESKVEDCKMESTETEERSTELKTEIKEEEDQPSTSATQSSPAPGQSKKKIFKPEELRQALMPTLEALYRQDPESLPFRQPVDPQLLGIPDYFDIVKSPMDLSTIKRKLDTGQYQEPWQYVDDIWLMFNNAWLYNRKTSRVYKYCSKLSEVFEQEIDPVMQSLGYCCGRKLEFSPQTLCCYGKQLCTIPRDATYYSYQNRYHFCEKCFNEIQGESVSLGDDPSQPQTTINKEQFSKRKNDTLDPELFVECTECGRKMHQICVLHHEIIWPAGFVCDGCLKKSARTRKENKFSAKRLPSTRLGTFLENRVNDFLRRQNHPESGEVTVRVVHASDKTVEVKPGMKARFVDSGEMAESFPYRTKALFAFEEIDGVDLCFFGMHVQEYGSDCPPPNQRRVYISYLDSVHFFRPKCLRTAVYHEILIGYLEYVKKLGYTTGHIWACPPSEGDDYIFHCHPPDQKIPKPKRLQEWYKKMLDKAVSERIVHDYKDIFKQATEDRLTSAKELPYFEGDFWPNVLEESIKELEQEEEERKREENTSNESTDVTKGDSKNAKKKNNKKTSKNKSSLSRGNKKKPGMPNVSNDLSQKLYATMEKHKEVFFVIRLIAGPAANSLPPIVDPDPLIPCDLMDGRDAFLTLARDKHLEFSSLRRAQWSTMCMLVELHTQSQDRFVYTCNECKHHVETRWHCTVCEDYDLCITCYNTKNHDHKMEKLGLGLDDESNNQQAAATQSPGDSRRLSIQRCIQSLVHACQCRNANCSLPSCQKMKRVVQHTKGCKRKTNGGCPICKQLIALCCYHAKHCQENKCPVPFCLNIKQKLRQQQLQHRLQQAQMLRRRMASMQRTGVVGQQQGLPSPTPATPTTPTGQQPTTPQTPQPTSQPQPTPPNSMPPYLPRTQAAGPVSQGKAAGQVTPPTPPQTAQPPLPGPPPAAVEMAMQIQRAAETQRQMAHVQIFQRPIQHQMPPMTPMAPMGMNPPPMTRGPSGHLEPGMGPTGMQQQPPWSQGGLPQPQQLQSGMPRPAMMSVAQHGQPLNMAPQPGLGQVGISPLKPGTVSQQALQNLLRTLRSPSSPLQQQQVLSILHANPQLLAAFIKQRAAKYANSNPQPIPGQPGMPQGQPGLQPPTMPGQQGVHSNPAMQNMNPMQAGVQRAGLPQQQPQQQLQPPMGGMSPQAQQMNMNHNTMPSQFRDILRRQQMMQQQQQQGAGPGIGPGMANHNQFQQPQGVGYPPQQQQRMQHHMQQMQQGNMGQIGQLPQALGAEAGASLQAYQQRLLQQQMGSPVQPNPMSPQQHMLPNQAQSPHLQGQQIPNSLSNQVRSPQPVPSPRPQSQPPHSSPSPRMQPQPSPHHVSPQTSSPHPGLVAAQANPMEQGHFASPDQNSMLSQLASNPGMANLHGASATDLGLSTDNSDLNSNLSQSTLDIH

RS4-11 [4] = experiment: Cytotoxicity against human RS4-11 cells assessed as inhibition of cell growth incubated for 4 days by cellTiter-Glo assay; assay type: functional, cell-based; settings: RS4-11, 96 h
[5] = target: T2, Histone acetyltransferase p300; experiment: Induction of p300 degradation in human RS4-11 cells assessed as maximal degradation incubated for 4 hrs by Western blot assay relative to control; assay type: cell-based
CREB-binding protein [6] = target: T1, CREB-binding protein; experiment: Induction of CBP degradation in human RS4-11 cells assessed as maximal degradation incubated for 4 hrs by Western blot assay; assay type: cell-based

| Structure (SMILES) | EC50 (CREB-binding protein [1]) [nM] | Imax (RS4-11 [2]) [%] | EC50 [3] [nM] | IC50 (RS4-11 [4]) [nM] | Emax [5] [%] | Emax (CREB-binding protein [6]) [%] | DC50 [3] [nM] |
| --- | --- | --- | --- | --- | --- | --- | --- |
| CC(=O)N1CCc2c(c(-c3cccc4cc(-c5ccc(C(=O)N6CC7(CC(Nc8cccc9c8C(=O)N(C8CCC(=O)NC8=O)C9=O)C7)C6)nc5)ncc34)nn2C2CCOCC2)C1 (stereo unspecified) | 0.3 | 85 | 1.1 | 11 | 95 | 99 | – |
| CC(=O)N1CCc2c(c(-c3cccc4cc(-c5ccc(C(=O)NCCCCc6cccc7c6CN(C6CCC(=O)NC6=O)C7=O)nc5)ncc34)nn2C2CCOCC2)C1 (stereo unspecified) | 0.2 | >95 | – | 0.1 | 99 | 80 | < 0.1 |
| CC(=O)N1CCc2c(c(-c3cccc4cc(-c5ccc(C(=O)N6CCC(Nc7cccc8c7C(=O)N(C7CCC(=O)NC7=O)C8=O)CC6)nc5)ncc34)nn2C2CCOCC2)C1 (stereo unspecified) | 1.8 | 70 | – | 68 | 25 | 86 | – |
| CC(=O)N1CCc2c(c(-c3cccc4cc(-c5ccc(C(=O)N6CCN(c7cccc8c7C(=O)N(C7CCC(=O)NC7=O)C8=O)CC6)nc5)ncc34)nn2C2CCOCC2)C1 (stereo unspecified) | 0.2 | 86 | 1.6 | 0.6 | 99 | 99 | – |
| CC(=O)N1CCc2c(c(-c3cccc4cc(-c5ccc(C(=O)N6CCC7(CC6)CC(Nc6cccc8c6C(=O)N(C6CCC(=O)NC6=O)C8=O)C7)nc5)ncc34)nn2C2CCOCC2)C1 (stereo unspecified) | 1.7 | 71 | 9.3 | 51 | 51 | 96 | – |
| CC(=O)N1CCc2c(c(-c3cccc4cc(-c5ccc(C(=O)N6CCC(C7CN(c8cccc9c8C(=O)N(C8CCC(=O)NC8=O)C9=O)C7)CC6)nc5)ncc34)nn2C2CCOCC2)C1 (stereo unspecified) | 3.7 | >95 | – | 2.4 | 40 | 85 | – |
| CC(=O)N1CCc2c(c(-c3cccc4cc(-c5ccc(C(=O)NCCNc6ccc7c(c6)CN(C6CCC(=O)NC6=O)C7=O)nc5)ncc34)nn2C2CCOCC2)C1 (stereo unspecified) | 1.1 | >95 | – | 0.1 | 73 | 80 | 5.1 |
| CC(=O)N1CCc2c(c(-c3cccc4cc(-c5ccc(C(=O)NCCCCNc6cccc7c6C(=O)N(C6CCC(=O)NC6=O)C7=O)nc5)ncc34)nn2C2CCOCC2)C1 (stereo unspecified) | 1.3 | >95 | 0.8 | 0.4 | 77 | 70 | – |
| CNC(=O)N1CCc2c(c(N3CCCc4cc(-c5cnn(C)c5)c(C(F)F)cc43)nn2C2CCN(C(=O)CCOCCOCCOCCOCCNc3ccc4c(c3)C(=O)N(C3CCC(=O)NC3=O)C4=O)CC2)C1 (stereo unspecified) | – | 89 | – | 4.8 | – | – | – |
| C[C@H](N(Cc1ccc(F)cc1)C(=O)CN1C(=O)O[C@@]2(CCc3cc(NC(=O)CCCCCCCCCCCNc4ccc5c(c4)C(=O)N(C4CCC(=O)NC4=O)C5=O)ccc32)C1=O)C(F)(F)F (stereo partly specified) | – | 99 | – | 91 | – | – | – |
| CC(=O)N1CCc2c(c(-c3cccc4cc(-c5ccc(C(=O)NCCCNc6cccc7c6CN(C6CCC(=O)NC6=O)C7=O)nc5)ncc34)nn2C2CCOCC2)C1 (stereo unspecified) | 0.2 | >95 | – | 0.1 | 95 | 98 | 1.8 |
| CC(=O)N1CCc2c(c(-c3cccc4cc(-c5ccc(C(=O)NCCCCCCNc6cccc7c6C(=O)N(C6CCC(=O)NC6=O)C7=O)nc5)ncc34)nn2C2CCOCC2)C1 (stereo unspecified) | 0.6 | 80 | 0.6 | 0.3 | 87 | 99 | – |
| CC(=O)N1CCc2c(c(-c3cccc4cc(-c5ccc(C(=O)NCCCCCNc6cccc7c6C(=O)N(C6CCC(=O)NC6=O)C7=O)nc5)ncc34)nn2C2CCOCC2)C1 (stereo unspecified) | 1 | >95 | 0.3 | 2.2 | 95 | 92 | – |
| CC(=O)N1CCc2c(c(-c3cccc4cc(-c5ccc(C(=O)N6CC7(CCC(Nc8cccc9c8C(=O)N(C8CCC(=O)NC8=O)C9=O)CC7)C6)nc5)ncc34)nn2C2CCOCC2)C1 (stereo unspecified) | 4.8 | 75 | 25 | 44 | 62 | 81 | – |
| CC(=O)N1CCc2c(c(-c3cccc4cc(-c5ccc(C(=O)N6CCC7(CCC(Nc8cccc9c8C(=O)N(C8CCC(=O)NC8=O)C9=O)CC7)CC6)nc5)ncc34)nn2C2CCOCC2)C1 (stereo unspecified) | – | 65 | – | 70 | 10 | 21 | – |
| CC(=O)N1CCc2c(c(-c3cccc4cc(-c5ccc(C(=O)NCCCCCCCNc6cccc7c6C(=O)N(C6CCC(=O)NC6=O)C7=O)nc5)ncc34)nn2C2CCOCC2)C1 (stereo unspecified) | 12 | 90 | 2.3 | 1.6 | 87 | 99 | – |
| CC(=O)N1CCc2c(c(-c3cccc4cc(-c5ccc(C(=O)NCCNc6cccc7c6C(=O)N(C6CCC(=O)NC6=O)C7=O)nc5)ncc34)nn2C2CCOCC2)C1 (stereo unspecified) | 1.7 | 50 | – | 196 | 37 | 66 | – |
| CC(=O)N1CCc2c(c(-c3cccc4cc(-c5ccc(C(=O)NCCCc6cccc7c6CN(C6CCC(=O)NC6=O)C7=O)nc5)ncc34)nn2C2CCOCC2)C1 (stereo unspecified) | 3.3 | 95 | – | 0.5 | 99 | 95 | 0.3 |
| CC(=O)N1CCc2c(c(-c3cccc4cc(-c5ccc(C(=O)NCCCCCCCCNc6cccc7c6C(=O)N(C6CCC(=O)NC6=O)C7=O)nc5)ncc34)nn2C2CCOCC2)C1 (stereo unspecified) | 0.2 | 87 | 1.6 | 1.5 | 97 | 99 | – |
| CC(=O)N1CCc2c(c(-c3cccc4cc(-c5ccc(C(=O)NCCNc6cccc7c6CN(C6CCC(=O)NC6=O)C7=O)nc5)ncc34)nn2C2CCOCC2)C1 (stereo unspecified) | 0.6 | 85 | – | 1.3 | 97 | 99 | 1.8 |
| CC(=O)N1CCc2c(c(-c3cccc4cc(-c5ccc(C(=O)NCCCCCc6cccc7c6CN(C6CCC(=O)NC6=O)C7=O)nc5)ncc34)nn2C2CCOCC2)C1 (stereo unspecified) | 0.2 | >95 | – | 0.2 | 99 | 99 | 0.1 |
| CC(=O)N1CCc2c(c(-c3cccc4cc(-c5ccc(C(=O)NC6CCN(c7ccc8c(c7)C(=O)N(C7CCC(=O)NC7=O)C8=O)CC6)nc5)ncc34)nn2C2CCOCC2)C1 (stereo unspecified) | 1 | 83 | 1.9 | 20 | 99 | 99 | – |
| CC(=O)N1CCc2c(c(-c3cccc4cc(-c5ccc(C(=O)NCCCNc6cccc7c6C(=O)N(C6CCC(=O)NC6=O)C7=O)nc5)ncc34)nn2C2CCOCC2)C1 (stereo unspecified) | 1.2 | >95 | 0.7 | 0.1 | 90 | 71 | – |
| CC(=O)N1CCc2c(c(-c3cccc4cc(-c5ccc(C(=O)NCCCNc6ccc7c(c6)CN(C6CCC(=O)NC6=O)C7=O)nc5)ncc34)nn2C2CCOCC2)C1 (stereo unspecified) | < 0.1 | >95 | – | 0.1 | 99 | 99 | 0.3 |
| CC(=O)N1CCc2c(c(-c3cccc4cc(-c5ccc(C(=O)N6CCC(C7CCN(c8cccc9c8C(=O)N(C8CCC(=O)NC8=O)C9=O)CC7)CC6)nc5)ncc34)nn2C2CCOCC2)C1 (stereo unspecified) | 40 | 88 | – | 24 | 10 | 58 | – |
